Test results published in patent US20250339531A1, “DUX4 POLYPEPTIDES AND NUCLEIC ACIDS FOR TREATING INFLAMMATORY AND AUTOIMMUNE CONDITIONS” (Fred Hutchinson Cancer Center, priority 2021, published 2025).
Entries after “also recorded” stand apart in the source; their conditions may differ.

How the values were obtained:
[1] = test system: HLA-A, HLA-B, HLA-C, PSMB8, PSMB9, PSMB10 mRNA; assay: mRNA levels of MHC-I and immunoproteasome genes (RT-PCR, RNA-seq); format: cell-based, human; conditions: MB135iDUX4 cells
Description: Myoblasts were transfected with either (final concentrations) 10 μM 2′,3′-cGAMP (Sigma Aldrich), 2 μg/mL poly(I:C) (Invitrogen), or 1 μg/mL 3′ppp-dsRNA RIG-I ligand (Dan Stetson Lab, UW) using Lipofectamine 2000 according to manufacturer's protocol, or were stimulated with 1000U IFNβ (PeproTech) or 200 ng/ml IFNγ (R+D Systems) by addition directly to cell culture medium. After 16 hours of immune stimulation, RNA was collected from cells using the NucleoSpin RNA Kit (Macherey-Nagel) according to manufacturer's instructions. RNA samples were quantified by nanodrop and 1 μg of RNA per sample was treated with DNase I Amplification Grade (Thermo Fisher), and then synthesized into cDNA using the Superscript IV First-Strand Synthesis System, including oligo dT primers (Invitrogen). qPCR was run in 384-well plates on an Applied Biosystems QuantStudio 6 Flex Real-Time PCR System (ABI) and analyzed in Microsoft Excel.
Total RNA was isolated using the NucleoSpin RNA kit (Machery-Nagel) or Direct-zol RNA Mini-Prep Kit (Zymo Research) according to manufacturer's instructions. RNA-seq libraries were prepared using the Illumina TruSeq RNA Sample Prep v2 Kit and sequenced using 50 bp paired-end sequencing on the Illumina NextSeq platform by the Fred Hutchinson Cancer Center Genomics Core.

[2] = test system: proteins that co-immunoprecipitated with DUX4-CTD constructs expressed in MB135 myoblasts; assay: LC-MS of proteins co-immunoprecipitated with DUX4-CTD (Table 1) and western validation; format: binding, human; conditions: LC-MS of co-IP; western validation with MB135-iDUXB as control; listed as DUX4-CTD
Text: As an unbiased method to identify proteins that interact with the C-terminal region of DUX4, liquid chromatography mass spectroscopy (LC-MS) was used to identify proteins that co-immunoprecipitated with DUX4-CTD constructs expressed in MB135 myoblasts. In the first experiment, MB135iDUX4-CTD cells were used, either untreated, treated with doxycycline alone, or with both doxycycline and IFNG. In the second experiment, MB135iDUX4-CTD and MB135iDUX4mL1dL2 cells were used, both treated with doxycycline and IFNG, compared to these two cell lines untreated and combined as a control. Proteins with a minimum of 2 peptide spectrum matches (PSMs) in at least one sample that were identified in both experiments were assigned to one of ten categories (see Methods) to separate candidate interactors from other categories that might be co-purified because of obligate interactions (e.g., proteasome or ribosome) or might be less likely to be physiologically relevant (e.g., cytoskeletal proteins). Candidate interactors were then ranked based on the total PSMs for that protein across all samples.
Centrifugation at 2500 rcf at 4° C. for 5 min pelleted the nuclei, supernatant was discarded, and nuclei resuspended in 1 mL IP buffer pH 7.4 (25 mM Tris-HCl pH 7.5, 175 mM NaCl, 1 mM EDTA, 0.2% NP-40, 5% glycerol) and incubated for 1 hour at 4° C. with rotation then spun at 21000 rcf for 10 minutes at 4° C. to pellet insoluble debris. Protein concentration was determined using the Pierce BCA Protein Assay Kit (ThermoFisher, 23225). An equivalent amount of protein per sample was pre-cleared with Dynabeads Protein G (Invitrogen) bound to mouse IgG (Abcam #131368) for 1 hour at 4° C. with rotation. FLAG-tagged constructs were then immunoprecipitated with Dynabeads Protein G beads coupled to mouse anti-FLAG M2 mAb (Sigma F3165) for 3 hours at 4° C. with rotation. Beads were washed 3× with 1 mL IP buffer and eluted by adding 2× NuPage LDS Sample Buffer (Thermo Fisher, diluted from 4× with PBS) to the beads and heating for 10 minutes at 70° C.
For LC-MS, anti-FLAG immunoprecipitation was performed with beads cross-linked to the anti-FLAG antibody and the proteins competitively eluted with FLAG peptide. Eluted protein samples were electrophoresed into a NuPage 4-12% Bis-Tris gel, excised, and processed by the Fred Hutchinson Cancer Research Center Proteomics Core. Samples were reduced, alkylated, digested with trypsin, desalted, and run on the Orbitrap Eclipse Tribid Mass Spectrometer (Thermo Fisher). Proteomics data were analyzed using Proteome Discoverer 2.4 against a Uniprot human database that included common contaminants using Sequest HT and Percolator for scoring. […] Proteins that were identified in at least one sample from both independent experiments with at least 2 PSMs in one sample were assigned to one of ten categories: 1, candidates; 2, cytoskeletal associated; 3, cytoskeletal; 4, ribosome/translation associated; 5, proteasome associated; 6, membrane or extracellular; ER, golgi, or vesicle associated; 8, lipid metabolism; 9, chaperones; 10, nuclear import or nuclear membrane associated. The proteins in category 1 were further investigated for interactions with DUX4.

[3] = test system: in vitro translated STAT1; assay: In vitro translation and anti-FLAG immunoprecipitation; format: binding; conditions: rabbit reticulocyte lysate proteins, ± JAK1 kinase; listed as DUX4-CTD
Description: In vitro translated proteins were prepared using the TnT Quick Coupled Transcription Translation System (Promega, L2080) for the SP6 promoter on the pCS2-3×MYC-STAT1, pCS2-3×MYC-STAT1-S727E, pCS2-3×FLAG-DUX4aa154-424, and pCS2-3×FLAG-DUXB plasmids. To phosphorylate the 3×MYC-STAT1 and 3×MYC-STAT1-S727E proteins at Y701, 20 μL of the TnT reaction was mixed with 8 μL of 5× Kinase Buffer A (ThermoFisher, Cat #PV3189), 4 uL 10 mM ATP (ThermoFisher, Cat #PV3227), 0.4 ug recombinant JAK1 kinase (ThermoFisher, Cat #PV4774), and then nuclease-free ddH2O to a final volume of 40 μL and incubated for 1 hour at 30° C. The same procedure was used for treatment of 3×FLAG-DUX4-CTD with JAK1 kinase. For IPs, the in vitro translated proteins were mixed and incubated for 15 minutes in a 37° C. water bath. 0.3 mL of ice-cold in vitro IP buffer [20 mM Tris-HCl pH 7.5, 137 mM NaCl, 1 mM EDTA, 0.1% Tween20, 5% glycerol, adjusted to pH 7.4] was added to each sample and then 50 μL of Dynabeads Protein G bound to mouse IgG1 anti-FLAG [M2] (F3165) and incubated for 3 hours at 4° C. with gentle rotation. After immunoprecipitation of FLAG-tagged constructs, each sample was washed 3 times with 1 mL of ice-cold in vitro IP buffer in a 4° C. room. […]

Substance	effect on IFNG-induced mRNAs of MHC class I / immunoproteasome genes, continuous protocol [1]	effect on IFNG-induced mRNAs of MHC class I / immunoproteasome genes, pulsed protocol [1]	candidate interacting proteins [2]	interaction with in vitro translated STAT1 [3]
DUX4: human DUX4 protein SEQ ID NO:3 expressed from doxycycline inducible codon altered transgene SEQ ID NO:2	profound inhibition of the IFNG-induction of the mRNA for MHC class I genes; also recorded: partially suppresses the IFNG induction of the mRNAs for PSMB8, 9, and 10; also recorded: partly blocked IFNG stimulation of HLA-A, HLA-B, HLA-C, PSMB8, PMSB9, and PSMB10 mRNA levels	little suppression of their mRNAs; also recorded: nearly full induction of these mRNAs; also recorded: still exhibited IFNG-induced mRNA levels significantly above untreated samples		
longCTD: 3×FLAG tag and nls in frame with carboxyterminal 271 amino acids of DUX4 (aa154-424), SEQ ID NOS: 8-9			STAT1 and DDX3X, two key regulators of innate immune signaling, ranked at the top of the list; also recorded: validated the DUX4-CTD interactions with DDX3X, STAT1, PRKDC, YBX1, HNRNPM, PABPC1, NCL, CDK4, and HNRPU	did not interact with in vitro translated STAT1; also recorded: does not co-immunoprecipitate with in vitro translated/phosphorylated STAT1
